In the NIST ThermoML archive (doi:10.1016/j.jct.2008.06.011):
Where “and” joins values, the source holds several entries; their conditions need not be identical. Equal entries are not always repeated. ± gives the expanded uncertainty stated by the source.

Details: Crystal, Calculated from knudsen effusion weight loss

Compound: NNC(=O)c1ccco1 [2-furoic acid hydrazide]
- vapor or sublimation pressure (309.15 K): 0.0001487 ± 7.5e-06 kPa and 0.0001459 ± 7.3e-06 kPa and 0.0001436 ± 7.2e-06 kPa
- vapor or sublimation pressure (311.15 K): 0.0001928 ± 9.7e-06 kPa and 0.0001919 ± 9.6e-06 kPa and 0.0001872 ± 9.4e-06 kPa
- vapor or sublimation pressure (313.14 K): 0.0002436 ± 1.2e-05 kPa and 0.0002335 ± 1.2e-05 kPa and 0.0002348 ± 1.2e-05 kPa
- vapor or sublimation pressure (315.14 K): 0.0003144 ± 1.6e-05 kPa and 0.0003082 ± 1.6e-05 kPa and 0.0003114 ± 1.6e-05 kPa
- vapor or sublimation pressure (317.13 K): 0.0003943 ± 2e-05 kPa and 0.0003803 ± 1.9e-05 kPa and 0.0003744 ± 1.9e-05 kPa
- vapor or sublimation pressure (319.15 K): 0.0005068 ± 2.5e-05 kPa and 0.0004916 ± 2.5e-05 kPa and 0.0004795 ± 2.4e-05 kPa
- vapor or sublimation pressure (321.14 K): 0.0006091 ± 3e-05 kPa and 0.0006111 ± 3.1e-05 kPa and 0.0005851 ± 2.9e-05 kPa
- vapor or sublimation pressure (323.16 K): 0.0007862 ± 3.9e-05 kPa and 0.0007814 ± 3.9e-05 kPa and 0.0007812 ± 3.9e-05 kPa
- vapor or sublimation pressure (325.15 K): 0.0009687 ± 4.8e-05 kPa and 0.0009579 ± 4.8e-05 kPa and 0.0009504 ± 4.8e-05 kPa

Compound: NNC(=O)c1cccs1 [2-thiophenecarboxylic acid hydrazide]
- vapor or sublimation pressure (339.13 K): 0.000108 ± 5e-06 kPa and 0.000109 ± 5e-06 kPa
- vapor or sublimation pressure (341.18 K): 0.000134 ± 7e-06 kPa and 0.000135 ± 7e-06 kPa
- vapor or sublimation pressure (343.2 K): 0.000171 ± 9e-06 kPa and 0.000169 ± 8e-06 kPa and 0.000164 ± 8e-06 kPa
- vapor or sublimation pressure (345.13 K): 0.000218 ± 1.1e-05 kPa and 0.000213 ± 1.1e-05 kPa and 0.000219 ± 1.1e-05 kPa
- vapor or sublimation pressure (347.18 K): 0.000273 ± 1.4e-05 kPa and 0.000274 ± 1.4e-05 kPa and 0.000262 ± 1.3e-05 kPa
- vapor or sublimation pressure (349.19 K): 0.00033 ± 1.7e-05 kPa and 0.00034 ± 1.7e-05 kPa and 0.000323 ± 1.6e-05 kPa
- vapor or sublimation pressure (351.13 K): 0.000414 ± 2.1e-05 kPa and 0.000423 ± 2.1e-05 kPa and 0.000404 ± 2e-05 kPa
- vapor or sublimation pressure (353.18 K): 0.000519 ± 2.6e-05 kPa and 0.00052 ± 2.6e-05 kPa and 0.000497 ± 2.5e-05 kPa
- vapor or sublimation pressure (355.19 K): 0.000637 ± 3.2e-05 kPa and 0.000628 ± 3.1e-05 kPa and 0.000622 ± 3.1e-05 kPa
- vapor or sublimation pressure (357.12 K): 0.000786 ± 3.9e-05 kPa and 0.000787 ± 3.9e-05 kPa and 0.000763 ± 3.8e-05 kPa
- vapor or sublimation pressure (359.15 K): 0.000977 ± 4.9e-05 kPa and 0.000971 ± 4.9e-05 kPa and 0.000942 ± 4.7e-05 kPa
- vapor or sublimation pressure (361.18 K): 0.001194 ± 0.00012 kPa and 0.001173 ± 0.00012 kPa and 0.001154 ± 0.00012 kPa
